Reference: PubChem BioAssay AID743071 (Broad Institute, 2013)
Activity calls are given as the source filed them. No rule for the calls is given here.

System: M. tuberculosis wild type plus biotin, growth inhibition
Test: mtb wild type strain growth inhibition with biotin, cell based, bioa project (AID 743071)
Settings: for IC90: measured here: Mtb growth IC90

SMILES	IC50	IC90
O=C(c1ccc2c(c1)OCO2)N1CCN(c2ccc(F)cc2)CC1	18.9 µM	> 50 µM
O=C(c1ccc2c(c1)OCO2)N1CCN(Cc2ccccc2)CC1	> 50 µM (inactive)	> 50 µM
Cc1cc(C)n2nc(C(=O)Nc3cccnc3)nc2n1	> 50 µM (inactive)	> 50 µM
CCc1ccc(C(=O)N2CCN(Cc3ccc4c(c3)OCO4)CC2)cc1	8.8 µM	> 50 µM
O=C(Nc1cccnc1)c1cnn2c(C(F)(F)F)cc(-c3ccccc3)nc12	> 50 µM (inactive)	> 50 µM
COc1ccc(NC(=O)N2CCN(c3ccccc3)CC2)cc1	> 50 µM (inactive)	> 50 µM
O=C(Nc1cccc(Cl)c1)N1CCN(c2ccccc2)CC1	5.5 µM	> 50 µM
O=C(Nc1ccc2snnc2c1)N1CCCCC1	50 µM	> 50 µM
CC(=O)c1ccc(N2CCN(C(=O)c3cccnc3)CC2)cc1	> 50 µM (inactive)	> 50 µM
O=C(Nc1ccc2snnc2c1)N1CCOCC1	> 50 µM (inactive)	> 50 µM
COc1cccc(NC(=O)N2CCN(c3ccccc3)CC2)c1	50 µM	> 50 µM
O=C(c1ccc2c(c1)OCO2)N1CCN(c2ccccc2)CC1	22.8 µM	> 50 µM
Cc1ccc(/C=C(\CC(=O)O)c2nc3ccccc3s2)cc1[N+](=O)[O-]	7.2 µM	> 50 µM
Cc1ccccc1/C=C(\CCC(=O)O)c1nc2ccccc2s1	8.4 µM	40.4 µM
COc1ccc(-c2cc(C(F)(F)F)n3nc(C(=O)Nc4cccnc4)cc3n2)cc1	> 50 µM (inactive)	> 50 µM
COc1cccc(C(=O)N2CCN(c3ccc(C(C)=O)cc3)CC2)c1	> 50 µM (inactive)	> 50 µM
CC(=O)c1ccc(N2CCN(Cc3ccc4c(c3)OCO4)CC2)cc1	50 µM	> 50 µM
COC(=O)c1c(C(=O)OC)c(-c2cccc(F)c2)n2c1CS(=O)C2 (stereo not given)	> 50 µM (inactive)	> 50 µM
CC(=O)c1ccc(N2CCN(C(=O)c3cccc(Cl)c3)CC2)cc1	> 50 µM (inactive)	> 50 µM
O=C(Nc1ccc2snnc2c1)N1CCN(c2ccccc2)CC1	> 50 µM (inactive)	> 50 µM

SMILES	IC50	IC90
COc1ccc(C(=O)N2CCN(c3ccc(C(C)=O)cc3)CC2)cc1	81.4 µM (inactive)	> 50 µM
Cc1nc2cc(NC(=O)N3CCN(c4ccccc4)CC3)ccc2o1	50 µM	> 50 µM
O=C(c1ccc2c(c1)OCO2)N1CCN(c2ccc(Cl)cc2)CC1	12.7 µM	42.7 µM
Cc1ccc(-c2cc(C(F)(F)F)n3nc(C(=O)Nc4cccnc4)cc3n2)cc1	> 50 µM (inactive)	> 50 µM
O=C(COc1ccc2ccc(=O)oc2c1)N1CCN(c2ccc(F)cc2)CC1	> 50 µM (inactive)	> 50 µM
O=C(Nc1ccccc1)N1CCN(c2ccccc2)CC1	11.7 µM	> 50 µM
O=C(Nc1cccc(F)c1)N1CCN(c2ccccc2)CC1	7.9 µM	> 50 µM
COc1cc(/C=C/C(=O)Nc2cccnc2)cc(OC)c1OC	> 50 µM (inactive)	> 50 µM
Cc1cccc(/C=C(\CCC(=O)O)c2nc3ccccc3s2)c1	3.1 µM	11.6 µM
CC(=O)c1ccc(N2CCN(C(=O)c3ccc(C)cc3)CC2)cc1	> 50 µM (inactive)	> 50 µM
CCOC(=O)N1CCN(C(=O)Nc2ccc3snnc3c2)CC1	50 µM	> 50 µM
O=C(Nc1cccnc1)c1cnn2c(C(F)F)cc(C3CC3)nc12	> 50 µM (inactive)	> 50 µM
O=C(Nc1ccc(F)cc1)N1CCN(c2ccccc2)CC1	19.8 µM	> 50 µM
CCc1ccc(N2CCN(C(=O)c3ccc4c(c3)OCO4)CC2)cc1	8.7 µM	> 50 µM
CC(=O)c1ccc(N2CCN(C(=O)c3ccccc3)CC2)cc1	> 50 µM (inactive)	> 50 µM
Cc1ccc(/C=C(\CCC(=O)O)c2nc3ccccc3s2)cc1[N+](=O)[O-]	2 µM	8.7 µM
COc1ccc(N2CCN(C(=O)c3ccc4c(c3)OCO4)CC2)cc1	10.1 µM	> 50 µM
O=C(Nc1ccc(Cl)c(-c2nc3ccccc3[nH]2)c1)c1cccnc1	6.5 µM	> 50 µM
Cc1ccc(/C=C(\CCC(=O)O)c2nc3ccccc3s2)cc1	2.2 µM	5.6 µM
CC(=O)c1ccc(N2CCN(C(=O)c3ccc4c(c3)OCO4)CC2)cc1	> 50 µM (inactive)	> 50 µM

SMILES	IC50	IC90
O=C(Nc1cccnc1)c1cc2nc(-c3cccs3)cc(C(F)(F)F)n2n1	> 50 µM (inactive)	> 50 µM
O=C(Nc1ccncc1)c1cc2nc(C3CC3)cc(C(F)F)n2n1	> 50 µM (inactive)	> 50 µM
CC(=O)c1ccc(N2CCN(C(=O)c3ccc(Cl)cc3)CC2)cc1	> 50 µM (inactive)	> 50 µM
O=C(Nc1cccnc1)N1CCN(c2ccccc2)CC1	> 50 µM (inactive)	> 50 µM
CCN(CC)c1ccc2cc(C(=O)c3cccs3)c(=O)oc2c1	5.5 µM	> 50 µM
O=C(O)CC/C(=C\c1ccc([N+](=O)[O-])cc1)c1nc2ccccc2s1	8.2 µM	> 50 µM
CC(=O)c1ccc(N2CCN(C(=O)c3ccc4ncsc4c3)CC2)cc1	> 50 µM (inactive)	> 50 µM
CC(=O)c1ccc(N2CCN(C(=O)c3ccc(Br)cc3)CC2)c(F)c1	> 50 µM (inactive)	> 50 µM
O=C(Nc1ccc(Cl)cc1)c1cc2nc(C3CC3)cc(C(F)(F)F)n2n1	> 50 µM (inactive)	> 50 µM
O=C(O)CC/C(=C\c1ccccc1[N+](=O)[O-])c1nc2ccccc2s1	> 50 µM (inactive)	> 50 µM
O=C(Nc1ccc2[nH]ccc2c1)N1CCN(c2ccccc2)CC1	8.5 µM	> 50 µM
CC(C)(C)c1ccc(C(=O)N2CCN(c3ccc4c(c3)OCO4)CC2)cc1	15 µM	> 50 µM
Cc1nc2ccc(NC(=O)N3CCN(c4ccccc4)CC3)cc2s1	1.9 µM	7.3 µM
CC(=O)c1ccc(N2CCN(C(=O)c3ccc4c(c3)OCCO4)CC2)cc1	> 50 µM (inactive)	> 50 µM
CC(=O)c1ccc(N2CCN(C(=O)c3ccc(F)cc3)CC2)cc1	> 50 µM (inactive)	> 50 µM
COc1cccc(NC(=O)CCC2CCN(C(=O)c3ccc(C(C)=O)s3)CC2)c1	> 50 µM (inactive)	> 50 µM
Cc1cc(C)n2nc(C(=O)Nc3cccnc3)cc2n1	> 50 µM (inactive)	> 50 µM
CC(=O)c1ccc(N2CCN(C(=O)c3cccc(F)c3)CC2)cc1	> 50 µM (inactive)	> 50 µM
Cc1ccc(NC(=O)N2CCN(c3ccccc3)CC2)cc1	8 µM	> 50 µM
Cc1ccc(/C=C(\CCCC(=O)O)c2nc3ccccc3s2)cc1[N+](=O)[O-]	9.6 µM	> 50 µM
